These are literature values, as cited in patent US20060030547A1, “Antineoplastic combinations” (Wyeth, priority 2001, published 2006).

Structures are written as SMILES.

In data set [1] the test system is human glioblastoma cell line. To be noted: in vitro, background statement.
Data set [2] concerns orthotopic glioma. To be noted: nude mice, background statement.
Data set [3] deals with histologically diverse tumor cells. To be noted: in vitro, background statement.

Regarding `CO[C@H]1C[C@@H]2CC[C@@H](C)[C@@](O)(O2)C(=O)C(=O)N2CCCC[C@H]2C(=O)O[C@H]([C@H](C)C[C@@H]2CC[C@@H](OC(=O)C(C)(CO)CO)[C@H](OC)C2)CC(=O)[C@H](C)/C=C(\C)[C@@H](O)[C@@H](OC)C(=O)[C@H](C)C[C@H](C)/C=C/C=C/C=C/1C` [CCI-779, Rapamycin 42-ester with 3-hydroxy-2-(hydroxymethyl)-2-methylpropionic acid], the “suppression of growth factor (platelet-derived)-induced stimulation” value in data set [1] was “markedly suppressed”. Besides, in data set [2], the “activity in orthotopic glioma model” value was “active”. For the same compound, in data set [3], the cell cycle effect result is “arrested cells in the G1 phase of the cell cycle”.
